The values that follow are results of earlier work, collected in patent US20220265629A1, “TREATMENT OF SYSTOLIC DYSFUNCTION AND HEART FAILURE WITH REDUCED EJECTION FRACTION WITH THE COMPOUND (R)-4-(1-((3-(DIFLUOROMETHYL)-1-METHYL-1H-PYRAZOL-4-YL)SULFONYL)-1-FLUOROETHYL)-N-(ISOXAZOL-3-YL)PIPERIDINE-1-CARBOXAMIDE” (MyoKardia, Inc., priority 2019, published 2022).

The subject of one data set is HFrEF. The conditions noted are these: Teerlink et al.; cited from earlier work.
The next data set concerns healthy volunteers. The conditions noted are these: correlated with increase in SET; cited from earlier work.

For `COC(=O)N1CCN(Cc2cccc(NC(=O)Nc3ccc(C)nc3)c2F)CC1` [omecamtiv mecarbil], the troponin entry in the data set with HFrEF is reported as “Mild troponin elevation”. In addition, the “ischemia at high doses” value with healthy volunteers was “resulted in ischemia”.
